{"source": "paper PMC2033546", "about": "“Effects of somatostatin analogue RC-160 and bombesin/gastrin-releasing peptide antagonists on the growth of human small-cell and non-small-cell lung carcinomas in nude mice” (British Journal of Cancer, 1994)", "key": {"SCLC H69 tumours": {"system": "SCLC H69 tumours", "assay": "Histology (mitosis, apoptosis, necrosis) of SCLC H69 tumours", "format": "in vivo, human (xenograft in nude mice)", "conditions": "Table II, Experiment I (SCLC H69); control 0.96 ? 0.1; means ? s.e.; *P < 0.05 vs control", "from_the_text": "(§1) Br. J. Cancer (1994). 70, 886 892 ? Macmillan Press Ltd.. […] Bombesin GRP antagonists. […] Lung carcinoma is the leading cause of cancer-related deaths in the western world. It is estimated that in 1992 there were approximately 168,000 new cases of lung cancer in the US and that about 146,000 deaths occurred from this disease (Boring et al., 1992). […] The growth factors such as bombesin/gastrin-releasing pep- tide (GRP), epidermal growth factor, (EGF), transforming growth factor a (TGF-x) and insulin-like growth factor I(IGF-I) appear to play a role in the proliferation and pro- gression of lung cancer (Cuttitta et al., 1985; Veale et al., 1987; Minuto et al., 1988; Siegfried & Owens, 1988; Macaulay et al., 1990; Tateishi et al., 1991; Damstrup et al., 1992; Sethi & Rozengurt, 1992; Rabiasz et al., 1992; Moody & Cuttitta, 1993). […] Tpi is 2,3,4,9-tetrahydro- Correspondence: A.V. Schally (151). VA Medical Center, 1601 Per- dido Street. New Orleans, LA 70146. USA. Received 1 March 1994; and in revised form 5 July 1994. Br. J. Cancer (1994), 70, 886-892 C Macmillan Press Ltd., 1994 PEPTIDE ANALOGUES IN LUNG CANCER 8U7 lH-pyrido [3,4bjindol-3-carboxylic acid, a conformationally constrained secondary amine derivate of tryptophan and Tac is thiazolidine-4-carboxylic acid. […] Animals Male athymic NCr nulmu nude mice, approximately 6 weeks old on arrival, were obtained from the NCI (Bethesda, MD, USA) and maintained under pathogen-limited conditions. Cell lines The human SCLC cell line NCI-H69, was obtained from the American Type Cell Culture (ATCC), Rockville, MD, USA and the non-SCLC cell line NCI-H157, from Dr H. Oie, NCI-Navy Medical Oncology Branch, Bethesda, MD, USA. These cell lines were cultured in RPMI-1640 medium supple- mented with 4 mM L-glutamine, 50 units ml-I penicilln G sodium, SOigml-' streptomycin sulphate, 0.125pgml-' amphotericin B and 10% fetal bovine serum at 3TC in a humidified 95% air/5% carbon dioxide atmosphere. CeLs were passaged weekly and routinely monitored for myco- plasma contamination using a detection kit (Boehringer- Mannheim, Mannheim, Germany). All culture media com- ponents were purchased from Gibco (Grand Island, NY, USA). Receptor assays Preparation of membranes for receptor studies was described previously (Halmos et al., 1993). Iodinated EGF and IGF-I were purchased from Amersham (Arlington Heights, IL, USA). Radioiodination of other peptides and receptor bind- ing of EGF, IGF-I, somatostatin and bombesin/GRP were performed as previously described (Srkalovic et al., 1989; Szepeshazi et al., 1992). Complete displacement assays on tumour membranes were done only once because of the shortage of tumour material. The LIGAND PC computerised curve-fitting programme of Munson and Rodbard (1980) was used to determine the types of receptor binding, dissociation constant (Kd) values, and the maximal binding capacity (BDj) of receptors. In order to determine the specificity of the binding sites for radiolabelled EGF, IGF-I, somatostatin and bombesin to lung cancer membranes, various structuraly related and unrelated peptides were tested for their ability to inhibit the binding of the tracers. Histological procedure The histological procedures were the same as described previously (Szepeshazi et al., 1991, 1992). The number of mitotic and apoptotic cells per 1,000 cells was determined, and the percentage area of necrosis in tumour sections was examined using the point-counting method (Szepeshazi et al., 1991, 1992), in which the crossing points of an ocular net that coincide with necrosis in various sections are counted. Radiommunoassays Serum levels of growth hormone were determined by double- antibody radioimmunoassay (RIA) using materials supplied by the National Hormone and Pituitary Program of the National Institute of Diabetes and Digestive and Kidney Diseases (NIDDK)."}, "[1]": {"system": "EGF receptors in membranes of non-SCLC H157 tumours", "assay": "EGF receptor binding on H157 tumour membranes after in vivo treatment", "parameters": "species or system human", "from_the_text": "as §1, with “Receptor assays Preparation of membranes for receptor studies was described previously (Halmos et al., 1993). Iodinated EGF and IGF-I were purchased from Amersham (Arlington Heights, IL, USA). Radioiodination of other peptides and receptor bind- ing of EGF, IGF-I, somatostatin and bombesin/GRP were performed as previously described (Srkalovic et al., 1989; Szepeshazi et al., 1992). Complete displacement assays on tumour membranes were done only once because of the shortage of tumour material. The LIGAND PC computerised curve-fitting programme of Munson and Rodbard (1980) was used to determine the types of receptor binding, dissociation constant (Kd) values, and the maximal binding capacity (BDj) of receptors. In order to determine the specificity of the binding sites for radiolabelled EGF, IGF-I, somatostatin and bombesin to lung cancer membranes, various structuraly related and unrelated peptides were tested for their ability to inhibit the binding of the tracers. Histological procedure The histological procedures were the same as described previously (Szepeshazi et al., 1991, 1992).” left out"}, "human SCLC cell line H69": {"system": "human SCLC cell line H69", "assay": "[3H]Thymidine incorporation assay in H69 cells", "format": "cell-based", "conditions": "for [3H]Thymidine incorporation: Table V, mean s.e.", "from_the_text": "as §1"}}, "note": "Where no end group is shown, it is not given here. [ ]: non-standard residue; d: D form."}
{"substance": "[dF]CY[dW]KVCW-NH2 (cysteine pairing not given here) [RC-160, Somatostatin analogue RC-160]", "values": [{"measurement": "Ratio of apoptotic to mitotic indices", "setting": "SCLC H69 tumours", "result": "2.27 ± 0.5*"}, {"measurement": "EGF maximal binding capacity (Bmax)", "setting": "[1]; Table IV, Experiment II (non-SCLC H157), tumour membranes after in vivo treatment, control 249, done once", "result": 100, "unit": "fmol mg' protein"}, {"measurement": "EGF binding capacity on H157 tumours (in words)", "setting": "[1]; after in vivo treatment", "result": "decreased"}, {"measurement": "Suppression of DNA synthesis", "setting": "human SCLC cell line H69; \"At 0.0 ILg ml-'\" RC-160, 5 days of incubation, H69 cells", "result": "about 43%"}, {"measurement": "[3H]thymidine incorporation into DNA of H69 cells (in words)", "setting": "human SCLC cell line H69; RC-160 0.001 to 10.0 µg/ml, 5 days, RC-3005 or RC-3009 5.0 and 25.0 µg/ml, 3 days", "result": "significantly inhibited"}, {"measurement": "[3H]Thymidine incorporation", "setting": "human SCLC cell line H69; 0.001 µg/ml, 5 days, *P<0.05 vs control", "result": "81.6 4.6* per cent of control"}, {"measurement": "[3H]Thymidine incorporation", "setting": "human SCLC cell line H69; 0.01 µg/ml, 5 days, *P<0.05 vs control", "result": "80.0 4.1* per cent of control"}, {"measurement": "[3H]Thymidine incorporation", "setting": "human SCLC cell line H69; 0.1 µg/ml, 5 days, **P<0.01 vs control", "result": "71.6 ± 3.4** per cent of control"}]}
